Laboratory results: patent US20230391739A1, “ARYL DERIVATIVES FOR TREATING TRPM3 MEDIATED DISORDERS” (Katholieke Universiteit Leuven, priority 2020, published 2023)

Target: T1, mouse TRPM3α2 (mTRPM3) ion channel (Mus musculus, UniProt J9SQF3)
T1 construct: expressed in transfected cells; host or cells: flip-in HEK293
Assay: TRPM3 ion channel driven Ca2+ uptake, Fluo-4 AM assay, PS-stimulated (mTRPM3)
Assay type: cell-based
Conditions: TRPM3 overexpressing flip-in HEK293 cells stimulated with Pregnenolone sulfate (PS) 50 μM, activity ranges A, B, C
Procedure, shortened: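 Flp-In HEK293 cells overexpressing mTRPM3α2 were added, in Ca²⁺-free Krebs, to wells already holding compound and 50 μM pregnenolone sulfate in Ca²⁺-containing Krebs. Fluo-4 AM fluorescence (ex 485/em 535 nm) was read immediately. Percent inhibition was computed from RFU relative to PS/vehicle wells and a positive-control inhibitor.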

T1 sequence (J9SQF3 1-1709 isoform J9SQF3-12): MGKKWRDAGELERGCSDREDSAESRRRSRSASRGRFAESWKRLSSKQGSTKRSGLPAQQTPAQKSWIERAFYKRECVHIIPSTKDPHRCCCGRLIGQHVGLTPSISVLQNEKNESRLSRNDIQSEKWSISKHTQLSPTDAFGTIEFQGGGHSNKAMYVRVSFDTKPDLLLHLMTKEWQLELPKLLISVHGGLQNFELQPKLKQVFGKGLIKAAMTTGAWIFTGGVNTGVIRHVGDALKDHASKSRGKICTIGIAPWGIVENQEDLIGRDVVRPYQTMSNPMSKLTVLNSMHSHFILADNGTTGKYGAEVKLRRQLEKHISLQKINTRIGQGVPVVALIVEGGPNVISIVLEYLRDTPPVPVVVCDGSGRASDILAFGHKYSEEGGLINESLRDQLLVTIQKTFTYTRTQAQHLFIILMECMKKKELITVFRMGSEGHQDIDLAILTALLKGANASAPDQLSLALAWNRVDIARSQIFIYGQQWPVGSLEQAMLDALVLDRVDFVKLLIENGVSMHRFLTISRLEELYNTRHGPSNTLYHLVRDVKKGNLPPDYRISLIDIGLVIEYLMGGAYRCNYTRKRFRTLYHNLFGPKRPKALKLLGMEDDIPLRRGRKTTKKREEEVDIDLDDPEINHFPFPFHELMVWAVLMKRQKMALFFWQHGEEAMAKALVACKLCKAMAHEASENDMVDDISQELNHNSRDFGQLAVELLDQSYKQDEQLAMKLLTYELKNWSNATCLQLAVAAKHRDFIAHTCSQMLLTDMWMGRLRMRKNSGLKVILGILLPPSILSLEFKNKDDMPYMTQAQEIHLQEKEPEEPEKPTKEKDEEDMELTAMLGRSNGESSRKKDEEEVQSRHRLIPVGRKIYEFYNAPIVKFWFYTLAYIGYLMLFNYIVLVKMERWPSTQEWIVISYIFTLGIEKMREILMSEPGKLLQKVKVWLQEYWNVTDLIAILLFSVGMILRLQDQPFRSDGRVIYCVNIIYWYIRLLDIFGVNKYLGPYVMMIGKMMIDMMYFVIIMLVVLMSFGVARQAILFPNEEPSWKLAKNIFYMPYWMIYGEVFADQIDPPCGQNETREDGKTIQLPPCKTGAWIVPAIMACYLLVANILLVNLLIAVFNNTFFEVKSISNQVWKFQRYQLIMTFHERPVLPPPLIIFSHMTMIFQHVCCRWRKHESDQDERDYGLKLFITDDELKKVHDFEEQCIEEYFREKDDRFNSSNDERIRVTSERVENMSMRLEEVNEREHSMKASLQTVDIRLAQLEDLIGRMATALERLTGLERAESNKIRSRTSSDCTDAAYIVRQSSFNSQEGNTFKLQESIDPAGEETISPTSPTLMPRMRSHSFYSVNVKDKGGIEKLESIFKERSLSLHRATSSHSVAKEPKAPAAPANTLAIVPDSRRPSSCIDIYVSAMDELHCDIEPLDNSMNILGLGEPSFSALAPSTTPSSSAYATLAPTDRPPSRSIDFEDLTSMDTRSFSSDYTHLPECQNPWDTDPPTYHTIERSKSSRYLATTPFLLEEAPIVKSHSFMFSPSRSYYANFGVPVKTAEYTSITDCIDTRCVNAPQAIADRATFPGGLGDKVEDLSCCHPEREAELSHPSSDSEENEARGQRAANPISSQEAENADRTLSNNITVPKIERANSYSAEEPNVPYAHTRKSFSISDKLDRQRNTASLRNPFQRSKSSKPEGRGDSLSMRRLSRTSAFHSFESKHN

SMILES: Cc1oc2ccc(OCc3ccc(CN)cc3)cc2c1C(=O)NC1CCN(C)CC1 [Cpd 190, 5-((4-(aminomethyl)benzyl)oxy)-2-methyl-N-(1-methylpiperidin-4-yl)benzofuran-3-carboxamide]
- IC50: > 20000 nM

SMILES: COC(=O)[C@@H]1C[C@H](NC(=O)c2c(C)oc3ccc(OCc4ccccc4)cc23)CN1 [Cpd 191, methyl (2S,4S)-4-(5-(benzyloxy)-2-methylbenzofuran-3-carboxamido)pyrrolidine-2-carboxylate]
- IC50: < 1000 nM

SMILES: Cc1oc2ccc(OCc3ccccc3CO)cc2c1C(=O)NC1CCN(C)CC1 [Cpd 192, 5-((2-(hydroxymethyl)benzyl)oxy)-2-methyl-N-(1-methylpiperidin-4-yl)benzofuran-3-carboxamide]
- IC50: 1000 to 20000 nM

SMILES: Cc1oc2ccc(OCc3ccccc3)cc2c1C(=O)NC1(C(=O)O)CCOCC1 [Cpd 193, 4-(5-(benzyloxy)-2-methylbenzofuran-3-carboxamido)tetrahydro-2H-pyran-4-carboxylic acid]
- IC50: 1000 to 20000 nM

SMILES: CCc1oc2ccc(OCc3cccc(F)c3)cc2c1C(=O)NC1CCN(C)CC1 [Cpd 194, 2-ethyl-5-((3-fluorobenzyl)oxy)-N-(1-methylpiperidin-4-yl)benzofuran-3-carboxamide]
- IC50: 1000 to 20000 nM

SMILES: Cc1oc2ccc(OCc3ccccc3)cc2c1C(=O)NS(=O)(=O)C(F)(F)F [Cpd 195, 5-(benzyloxy)-2-methyl-N-((trifluoromethyl)sulfonyl)benzofuran-3-carboxamide]
- IC50: > 20000 nM

SMILES: Cc1oc2ccc(OCc3ccccc3)cc2c1C(=O)NCc1nnc2ncccn12 [Cpd 196, N-([1,2,4]triazolo[4,3-a]pyrimidin-3-ylmethyl)-5-(benzyloxy)-2-methylbenzofuran-3-carboxamide]
- IC50: 1000 to 20000 nM

SMILES: Cc1oc2ccc(OCc3ccccc3F)cc2c1C(=O)NC1(CO)CCOCC1 [Cpd 197, 5-((2-fluorobenzyl)oxy)-N-(4-(hydroxymethyl)tetrahydro-2H-pyran-4-yl)-2-methylbenzofuran-3-carboxamide]
- IC50: < 1000 nM

SMILES: Cc1oc2ccc(OCc3ccccc3)cc2c1C(=O)NC1CCS(=O)(=O)CC1 [Cpd 198, 5-(benzyloxy)-N-(1,1-dioxidotetrahydro-2H-thiopyran-4-yl)-2-methylbenzofuran-3-carboxamide]
- IC50: < 1000 nM

SMILES: COc1ccccc1COc1ccc2oc(C)c(C(=O)NS(=O)(=O)C3CC3)c2c1 [Cpd 199, N-(cyclopropylsulfonyl)-5-((2-methoxybenzyl)oxy)-2-methylbenzofuran-3-carboxamide]
- IC50: < 1000 nM

SMILES: Cc1cc(C)c(CNC(=O)c2c(C)oc3ccc(OCc4ccccc4)cc23)c(=O)[nH]1 [Cpd 200, 5-(benzyloxy)-N-((4,6-dimethyl-2-oxo-1,2-dihydropyridin-3-yl)methyl)-2-methylbenzofuran-3-carboxamide]
- IC50: > 20000 nM

SMILES: Cc1oc2ccc(OCc3ccccc3F)cc2c1C(=O)NC1CCNCC1(F)F (stereo not drawn) [Cpd 201, N-(3,3-difluoropiperidin-4-yl)-5-((2-fluorobenzyl)oxy)-2-methylbenzofuran-3-carboxamide]
- IC50: < 1000 nM

SMILES: Cc1oc2ccc(OCc3ccc(C(F)(F)F)cc3)cc2c1C(=O)N[C@H]1CCNC1 [Cpd 202, (S)-2-methyl-N-(pyrrolidin-3-yl)-5-((4-(trifluoromethyl)benzyl)oxy)benzofuran-3-carboxamide]
- IC50: 1000 to 20000 nM

SMILES: Cc1oc2ccc(OCc3ccccc3C(F)(F)F)cc2c1C(=O)N[C@H]1CCNC1 [Cpd 203, (S)-2-methyl-N-(pyrrolidin-3-yl)-5-((2-(trifluoromethyl)benzyl)oxy)benzofuran-3-carboxamide]
- IC50: < 1000 nM

SMILES: Cc1oc2ccc(OCc3cccc(C(F)(F)F)c3)cc2c1C(=O)N[C@H]1CCNC1 [Cpd 204, (S)-2-methyl-N-(pyrrolidin-3-yl)-5-((3-(trifluoromethyl)benzyl)oxy)benzofuran-3-carboxamide]
- IC50: < 1000 nM

SMILES: Cc1oc2ccc(OCc3ccccc3)cc2c1C(=O)N[C@H]1C[C@H]2CN(C)CCN2C1 [Cpd 205, 5-(benzyloxy)-2-methyl-N-((7S,8aS)-2-methyloctahydropyrrolo[1,2-a]pyrazin-7-yl)benzofuran-3-carboxamide]
- IC50: 1000 to 20000 nM

SMILES: Cc1oc2ccc(OCc3ccccc3)cc2c1C(=O)N[C@H]1CCCN(C2COC2)C1 [Cpd 206, (S)-5-(benzyloxy)-2-methyl-N-(1-(oxetan-3-yl)piperidin-3-yl)benzofuran-3-carboxamide]
- IC50: 1000 to 20000 nM

SMILES: Cc1oc2ccc(OCc3ccccc3)cc2c1C(=O)N[C@@H]1CCCN(C2COC2)C1 [Cpd 207, (R)-5-(benzyloxy)-2-methyl-N-(1-(oxetan-3-yl)piperidin-3-yl)benzofuran-3-carboxamide]
- IC50: < 1000 nM

SMILES: Cc1oc2ccc(OCc3ccccc3)cc2c1C(=O)NC1CCN(C2COC2)CC1 [Cpd 208, 5-(benzyloxy)-2-methyl-N-(1-(oxetan-3-yl)piperidin-4-yl)benzofuran-3-carboxamide]
- IC50: 1000 to 20000 nM

SMILES: Cc1oc2ccc(OCc3ccccc3)cc2c1C(=O)NC1CC(C)(C)NC(C)(C)C1 [Cpd 209, 5-(benzyloxy)-2-methyl-N-(2,2,6,6-tetramethylpiperidin-4-yl)benzofuran-3-carboxamide]
- IC50: 1000 to 20000 nM

SMILES: Cc1oc2ccc(OCc3ccccc3)cc2c1C(=O)N[C@H]1CC[C@H](C(C)(C)O)CC1 [Cpd 210, 5-(benzyloxy)-N-(trans-4-(2-hydroxypropan-2-yl)cyclohexyl)-2-methylbenzofuran-3-carboxamide]
- IC50: 1000 to 20000 nM

SMILES: Cc1oc2ccc(OCc3cccc(F)c3F)cc2c1C(=O)NC1CNCC1(F)F (stereo not drawn) [Cpd 211, 5-((2,3-difluorobenzyl)oxy)-N-(4,4-difluoropyrrolidin-3-yl)-2-methylbenzofuran-3-carboxamide]
- IC50: < 1000 nM

SMILES: COC(=O)C1(NC(=O)c2c(C)oc3ccc(OCc4ccccc4)cc23)CCOCC1 [Cpd 212, methyl 4-(5-(benzyloxy)-2-methylbenzofuran-3-carboxamido)tetrahydro-2H-pyran-4-carboxylate]
- IC50: < 1000 nM

SMILES: Cc1oc2ccc(OCc3ccccc3)cc2c1C(=O)N1CCN(c2ccccn2)CC1 [Cpd 214, (5-(benzyloxy)-2-methylbenzofuran-3-yl)(4-(pyridin-2-yl)piperazin-1-yl)methanone]
- IC50: 1000 to 20000 nM

SMILES: Cc1oc2ccc(OCc3ccccc3)cc2c1C(=O)N[C@H]1CCN(S(C)(=O)=O)C1 [Cpd 215, (S)-5-(benzyloxy)-2-methyl-N-(1-(methylsulfonyl)pyrrolidin-3-yl)benzofuran-3-carboxamide]
- IC50: < 1000 nM

SMILES: Cc1oc2ccc(OCc3ccccc3)cc2c1C(=O)NCC(c1ccccc1)N(C)C (stereo not drawn) [Cpd 216, 5-(benzyloxy)-N-(2-(dimethylamino)-2-phenylethyl)-2-methylbenzofuran-3-carboxamide]
- IC50: 1000 to 20000 nM

SMILES: Cc1oc2ccc(OCc3cccc(F)c3F)cc2c1C(=O)NC1(CO)CCOCC1 [Cpd 217, 5-((2,3-difluorobenzyl)oxy)-N-(4-(hydroxymethyl)tetrahydro-2H-pyran-4-yl)-2-methylbenzo-furan-3-carboxamide]
- IC50: < 1000 nM

SMILES: Cc1oc2ccc(OCc3c(F)cccc3F)cc2c1C(=O)NC1(CO)CCOCC1 [Cpd 218, 5-((2,6-difluorobenzyl)oxy)-N-(4-(hydroxymethyl)tetrahydro-2H-pyran-4-yl)-2-methylbenzo-furan-3-carboxamide]
- IC50: < 1000 nM

SMILES: Cc1oc2ccc(OCc3ccccc3C(F)(F)F)cc2c1C(=O)NC1CCNC1=O (stereo not drawn) [Cpd 219, 2-methyl-N-(2-oxopyrrolidin-3-yl)-5-((2-(trifluoromethyl)benzyl)oxy)benzofuran-3-carboxamide]
- IC50: < 1000 nM

SMILES: CN1CCC(NC(=O)c2c(C3CCCC3)oc3ccc(OCc4ccccc4)cc23)CC1 [Cpd 221, 5-(benzyloxy)-2-cyclopentyl-N-(1-methylpiperidin-4-yl)benzofuran-3-carboxamide]
- IC50: > 20000 nM

SMILES: Cc1oc2ccc(OCc3ccccc3)cc2c1C(=O)N[C@H]1C[C@H]2C(=O)NCC(=O)N2C1 [Cpd 222, 5-(benzyloxy)-N-((7S,8aS)-1,4-dioxooctahydropyrrolo[1,2-a]pyrazin-7-yl)-2-methylbenzofuran-3-carboxamide]
- IC50: 1000 to 20000 nM

SMILES: Cc1oc2ccc(OCc3cccc(OC(F)(F)F)c3)cc2c1C(=O)N[C@H]1CCNC1 [Cpd 223, (S)-2-methyl-N-(pyrrolidin-3-yl)-5-((3-(trifluoromethoxy)benzyl)oxy)benzofuran-3-carboxamide]
- IC50: 1000 to 20000 nM

SMILES: Cc1oc2ccc(OC(CCN(C)C)c3ccccc3)cc2c1C(=O)NC1CCNC1=O (stereo not drawn) [Cpd 224, 5-(3-(dimethylamino)-1-phenylpropoxy)-2-methyl-N-(2-oxopyrrolidin-3-yl)benzofuran-3-carboxamide]
- IC50: > 20000 nM

SMILES: Cc1oc2ccc(OCc3ccccc3)cc2c1C(=O)NC1CCN(CCN(C)C)CC1 [Cpd 225, 5-(benzyloxy)-N-(1-(2-(dimethylamino)ethyl)piperidin-4-yl)-2-methylbenzofuran-3-carboxamide]
- IC50: 1000 to 20000 nM

SMILES: Cc1oc2ccc(OCc3c(F)cccc3F)cc2c1C(=O)NC1CCNCC1(F)F (stereo not drawn) [Cpd 226, 5-((2,6-difluorobenzyl)oxy)-N-(3,3-difluoropiperidin-4-yl)-2-methylbenzofuran-3-carboxamide]
- IC50: < 1000 nM

SMILES: Cc1oc2ccc(OCc3cccc(F)c3F)cc2c1C(=O)NC1CCNCC1(F)F (stereo not drawn) [Cpd 227, 5-((2,3-difluorobenzyl)oxy)-N-(3,3-difluoropiperidin-4-yl)-2-methylbenzofuran-3-carboxamide]
- IC50: < 1000 nM

SMILES: Cc1oc2ccc(OCc3ccccc3)cc2c1C(=O)NC1CN(C(=O)OC(C)(C)C)C1 [Cpd 228, tert-butyl 3-(5-(benzyloxy)-2-methylbenzofuran-3-carboxamido)azetidine-1-carboxylate]
- IC50: 1000 to 20000 nM

SMILES: COCCCN1CCC(NC(=O)c2c(C)oc3ccc(OCc4ccccc4)cc23)CC1 [Cpd 229, 5-(benzyloxy)-N-(1-(3-methoxypropyl)piperidin-4-yl)-2-methylbenzofuran-3-carboxamide]
- IC50: 1000 to 20000 nM

SMILES: Cc1oc2ccc(OCc3ccccc3)cc2c1C(=O)NC1CCN(c2ncccn2)CC1 [Cpd 230, 5-(benzyloxy)-2-methyl-N-(1-(pyrimidin-2-yl)piperidin-4-yl)benzofuran-3-carboxamide]
- IC50: < 1000 nM
